Measured values: patent publication US20070281036A1, “System and method of delivering a desired material to a cell” (University of Vermont and State Agricultural College, priority 2005, published 2007)
Each block holds one compound with its values, some of them ahead of it.

Tests used:
[1] = tested on: human mesothelioma cells; format: cell-based
Experimental: We have also modified existing HPLC methods (Andersen et al, 1993, 1994; De Bruijn et al, 1999) to compare the amounts of DOX transferred to cellular interiors by DOX-loaded APMS and DOX alone. More DOX is transferred to cells when it is preloaded into APMS than when it is administered alone. Briefly, measurement of cellular DOX concentrations was accomplished by lysis and enzymatic digestion of the cellular contents, along with centrifugation. […] Similar methodology was used to quantify the amount of extracellular DOX, and since the total amount of DOX within the APMS particles prior to its addition to the cell culture was known, the amount of DOX remaining within the particles could be determined (FIG. 7). Intracellular and extracellular amounts of DOX were measured by fluorescence HPLC after digestion and release of DOX from cellular material (FIG. 7A). […]
Preloading APMS with Doxorubicin (DOX). […] The concentration of DOX within the APMS were calculated theoretically and verified via HPLC following hydration overnight in water or methanol at room temperature, as previously described (13). Concentrations of DOX in cells were measured. […] Similar methodology was used to quantify the amount of extracellular DOX, and since the total amount of DOX within the APMS particles prior to its addition to the cell culture was known, the amount of DOX remaining within the particles could be determined.

[2] = tested on: phosphorylated histone protein H2AX (γH2AX); assay: Immunocytochemical analysis of γH2AX; format: cell-based, human; details: 80 nM DOX; 8 and 24 h; compared to control
Experimental: Mechanisms of Cytotoxicity. To explore mechanisms of toxicity of DOX at low concentrations delivered by APMS, levels of phosphorylated histone protein H2AX (γH2AX), a marker of DNA double strand breaks, and Apoptosis Inducing Factor (AIF), a marker of mitochondrial mediated apoptosis, were analyzed.
Immunocytochemical Analysis ofphosphorylated histone protein H2AX (γH2AX). Monolayers of cells were grown on glass coverslips and treated as described above. Cells were then washed in PBS, then fixed in 4% paraformaldehyde and permeabilized in 0.1% Triton X-100. Cells were blocked for 1 h at room temperature in PBS containing 3% bovine serum albumin (BSA), then incubated in a 1:500 dilution of mouse monoclonal anti-phospho-histone H2AX antibody (#05-636, Upstate Cell Signaling, Charlottesville, Va.) in 3% BSA overnight at 4° C. Cells were then washed in PBS and incubated in a 1:300 dilution of goat anti-mouse IgO conjugated to Alexa-647 fluorescent tag (Molecular Probes, Invitrogen) in PBS for 45 min at room temperature in the dark. […] Coverslips were then washed and mounted on glass slides using Aqua Poly/Mount (#18606, Polysciences, Inc., Warrington, Pa.) and analyzed using a Zeiss LSM 510 META confocal scanning laser microscope (Carl Zeiss Microimaging).

[3] = tested on: AKT; assay: Western blot for phosphorylated AKT; format: cell-based, human; details: 80 nM DOX; each time point
Experimental: (§1) Western Blot Analyses for Phosphorylated ERK's1/2 and AKT To determine whether DOX at low concentrations delivered by APMS modified signaling pathways associated with cell survival, nearly confluent MM cells were washed 3× with cold PBS, scraped from culture plates, and collected by centrifugation at 14,000 rpm for 1 min. The pellet was resuspended in lysis buffer [20 mM Tris (pH 7.4), 1% Triton X-100, 10% glycerol, 137 mM NaCl, 2 mM EDTA, 25 mM β-glycerophosphate, 1 mM Na3VO4, 2 mM pyrophosphate, 1 mM PMSF, 10 μg/ml leupeptin, 1 mM DTT, 10 mM NaF, 1% aprotinin], incubated at 4° C. for 15 min, and centrifuged at 14,000 rpm for 20 min. Protein concentrations were determined using a Bio-Rad RC-DC Assay (Bio-Rad Laboratories, Hercules, Calif.). […] of protein in sample buffer [62.5 mM Tris-HCl (pH 6.8), 2% sodium dodecyl sulfate (SDS), 10% glycerol, 50 mM dithiothreitol, 0.1% w/v bromophenol blue] was resolved by electrophoresis in 10% SDS-polyacrylamide gels, and transferred to nitrocellulose using a Mini Trans-Blot Cell apparatus (Bio-Rad Laboratories). […] Blots were washed 3× in TBS/0.1% Tween-20, and protein bands were visualized with the ECL Western Blotting Detection Reagents (Amersham Biosciences, GE Healthecare UK Limited, Buckinghamshire, UK) and quantitated using a Bio-Rad phosphorimager.

[4] = tested on: NF-κB; assay: NF-κB electrophoretic mobility shift assay; format: cell-based, human
Experimental: NF-κB Electrophoretic Mobility Shift Assay. Electrophoretic gel mobility shift assays were used to assess the binding of NF-κB to DNA. Nuclear extracts of MM cells treated with 80 nM DOX, 100 μM DOX, APMS-TEG, APMS-TEG preloaded with 80 nM DOX (APMS-DOX80) for 4 h, were prepared as described previously (14). Samples were treated with or without TNF-α, 1 h prior to harvesting nuclear protein. The amount of protein in each sample was determined with the Bio-Rad protein assay (Bio-Rad). A ^32P-end-labeled double stranded oligodeoxynucleotide representing the specific element that contains an NF-κB consensus sequence (E3292, Promega, Madison, Wis.) was incubated with 3 μg of extract as described previously (15). The components of the NF-κB complex were identified by antibodies specific for p50 and p65 proteins (Santa Cruz Biotechnology, Inc., Santa Cruz, Calif.). Autoradiograms were developed and quantitated with a Bio-Rad phosphorimager.

[5] = tested on: human mesothelioma (MM) cells; assay: LDH release assay of cell lysis, MM cells; details: doses of DOX ranging from 800 nM to 2000 nM; 48 h
Experimental: Cells were plated and grown to 70-80% confluence at 37° C. in complete medium. Medium was aspirated and replaced with maintenance medium containing 0.5% FBS, and incubated for 24 hrs.
Briefly, cells were treated with APMS and/or DOX alone and in combination for varying amounts of time, and 50 μl of the supernatant was removed (in triplicate) and placed into wells of a 96-well plate. Fifty μl of substrate buffer was added to each well, and the plate was incubated for 30 min at room temperature in the dark. Fifty μl of stop solution was then added, and plates were read at 490 nm.

[6] = tested on: ERK1/2; assay: Western blot for phosphorylated ERK1/2; format: cell-based, human; details: 80 nM DOX; 4, 8, 24 and 48 h
Experimental: as §1

[7] = tested on: MM cells; assay: MTS cell viability assay; format: cell-based, human; details: 80 nM DOX; varying amounts of time
Experimental: Cell viability was measured in treated cells by using the calorimetric MTS Assay, CellTiter 96 AQueous One Solution Cell Proliferation Assay (Promega) as per the manufacturer's recommendations. Briefly, 5×10^3 cells were plated in a 96-well microtiter plate and allowed to recover overnight. Medium was aspirated, and cells were maintained in a low serum-containing medium for 24 h prior to treatment for varying amounts of time with APMS and/or DOX. MTS reagent was added, plates were incubated at 37° C. for 2-3 h and the absorbance of the wells was read at 492 nm as a measure of cell viability.

[8] = tested on: MM cells; assay: Flow cytometry of mechanisms of APMS uptake; format: cell-based, human; details: 30 min pretreatment; chlorpromazine 5 μg/ml, cytochalasin D 1 μM, filipin 6.25 μg/ml; vs control at 37° C.
Experimental: Cells were exposed for 30 min to chemical inhibitors of specific uptake mechanisms: chlorpromazine ([…]), cytochalasin D (1 μM), or filipin (6.25 μg/ml), i.e. at effective concentrations as reported in the literature (25-29), or incubated at 4° C. for 30 min prior to addition of APMS for various amounts of time. Hoechst 33342 nucleic acid dye (16.2 μM) (Molecular Probes, Invitrogen) was added 15 min prior to harvesting cells. Cells were washed once in PBS and removed from dishes using Accutase cell detachment solution (Innovative Cell Technologies, Inc. San Diego, Calif.), pelleted by centrifugation, resuspended in calcium and magnesium-free phosphate buffered saline (PBS), and kept on ice until analyzed. Samples were analyzed using a BD LSRII flow cytometer (BD Biosciences, San Jose, Calif.) equipped with a Sapphire 488 (Coherent, Santa Clara, Calif.) laser which emits at 488 nm to excite the Alexa 488 dye, and a solid state Xcite (Lightwave) which emits at 355 nm to excite the Hoechst 333342 nucleic acid dye (Molecular Probes, Invitrogen). Data analysis was performed at the time of acquisition using Flow Jo (Tree Star, Inc., Ashland, Oreg.). This software package is an experiment-based flow cytometry data analysis package designed for multi-color research.
To verify that the gating used in determining cell populations was accurate, FACS analysis was performed on different populations. Populations of cells/APMS were selected based on their locations on histograms, and were sorted, collected and mounted on glass slides using cytocentriftigation. […] The fluorescent signals from Alexa 488 were detected using 530/30 BP and 505 LP filters. Hoechst staining was detected using 440/40 BP filter. Identification and quantification of populations on cytospins were performed manually with phase contrast and fluorescence microscopy using an Olympus BX50 microscope (Olympus America, Lake Success, N.Y.).

Compound: COc1cccc2c1C(=O)c1c(O)c3c(c(O)c1C2=O)C[C@@](O)(C(=O)CO)C[C@@H]3O[C@H]1C[C@H](N)[C@H](O)[C@H](C)O1 [DOX, doxorubicin]
- amount of DOX transferred to the cell relative to DOX preloaded into APMS [1]: Approximately half as much
- maximum amount of DOX transferred to the cellular interior, of the initial dose ([1]; human): approximately 25%
- levels of γH2AX [2]: increased
- phospho-AKT: total AKT ratios [3]: did not significantly affect
- NF-κB-DNA binding after adding TNF-α 1 hr prior to harvesting ([4]; 80 nM DOX): further increased the DNA binding
- NF-κB-DNA binding after adding TNF-α for 1 h prior to harvesting ([4]; 100 μM DOX): could not be reversed
- NF-κB-DNA binding activity ([4]; 100 μM DOX (a lethal concentration), 4 h): ablated
- NF-κB-DNA binding activity ([4]; 4 h exposure, 80 nM DOX, compared to controls): increased
- cell death compared to total LDH released from lysed cells [5]: 10-13%
- phospho-ERK1/2: total ERK1/2 ratio [6]: do not significantly affect
- cell viability (MTS) [7]: no significant difference

Compound: CN(C)CCCN1c2ccccc2Sc2ccc(Cl)cc21 [chlorpromazine]
- effect of inhibitor pretreatment on APMS-TEG particle uptake [8]: no inhibition

Compound: C=C1[C@@H](C)[C@H]2[C@H](Cc3ccccc3)NC(=O)[C@]23[C@H](OC(C)=O)/C=C/[C@@](C)(O)C(=O)[C@@H](C)C/C=C/[C@H]3[C@@H]1O [cytochalasin D]
- effect of inhibitor pretreatment on APMS-TEG particle uptake [8]: decreased numbers of APMS-containing cells

Compound: CCCCC[C@@H](O)[C@H]1C(=O)O[C@H](C)[C@@H](O)/C=C/C=C/C=C/C=C/C=C(\C)[C@@H](O)C[C@H](O)C[C@H](O)C[C@H](O)C[C@H](O)C[C@H](O)C[C@@H]1O [filipin]
- effect of inhibitor pretreatment on APMS-TEG particle uptake [8]: no inhibition

- NF-κB DNA binding ([4]; 1 hr incubation): dramatically increased DNA binding
Compound: TNF-α
